In patent publication US8586768B2, “Design, synthesis and functional characterization of rottlerin analogs” (priority 2009, dated 2013):

Tests used:
Test in all cases: In-vitro kinase profiling, radioisotope screening assay (Signal Chem)
Assay type in all cases: biochemical
ASK1 = biological target: T1, ASK1 (Homo sapiens, UniProt Q99683); details: 5 μM compound, 50 μM ATP, vs vehicle control; negative = inhibition
T1 construct: purchased Signal Chem (Richmond, BC, Canada)
T1 sequence (Q99683 1-1374): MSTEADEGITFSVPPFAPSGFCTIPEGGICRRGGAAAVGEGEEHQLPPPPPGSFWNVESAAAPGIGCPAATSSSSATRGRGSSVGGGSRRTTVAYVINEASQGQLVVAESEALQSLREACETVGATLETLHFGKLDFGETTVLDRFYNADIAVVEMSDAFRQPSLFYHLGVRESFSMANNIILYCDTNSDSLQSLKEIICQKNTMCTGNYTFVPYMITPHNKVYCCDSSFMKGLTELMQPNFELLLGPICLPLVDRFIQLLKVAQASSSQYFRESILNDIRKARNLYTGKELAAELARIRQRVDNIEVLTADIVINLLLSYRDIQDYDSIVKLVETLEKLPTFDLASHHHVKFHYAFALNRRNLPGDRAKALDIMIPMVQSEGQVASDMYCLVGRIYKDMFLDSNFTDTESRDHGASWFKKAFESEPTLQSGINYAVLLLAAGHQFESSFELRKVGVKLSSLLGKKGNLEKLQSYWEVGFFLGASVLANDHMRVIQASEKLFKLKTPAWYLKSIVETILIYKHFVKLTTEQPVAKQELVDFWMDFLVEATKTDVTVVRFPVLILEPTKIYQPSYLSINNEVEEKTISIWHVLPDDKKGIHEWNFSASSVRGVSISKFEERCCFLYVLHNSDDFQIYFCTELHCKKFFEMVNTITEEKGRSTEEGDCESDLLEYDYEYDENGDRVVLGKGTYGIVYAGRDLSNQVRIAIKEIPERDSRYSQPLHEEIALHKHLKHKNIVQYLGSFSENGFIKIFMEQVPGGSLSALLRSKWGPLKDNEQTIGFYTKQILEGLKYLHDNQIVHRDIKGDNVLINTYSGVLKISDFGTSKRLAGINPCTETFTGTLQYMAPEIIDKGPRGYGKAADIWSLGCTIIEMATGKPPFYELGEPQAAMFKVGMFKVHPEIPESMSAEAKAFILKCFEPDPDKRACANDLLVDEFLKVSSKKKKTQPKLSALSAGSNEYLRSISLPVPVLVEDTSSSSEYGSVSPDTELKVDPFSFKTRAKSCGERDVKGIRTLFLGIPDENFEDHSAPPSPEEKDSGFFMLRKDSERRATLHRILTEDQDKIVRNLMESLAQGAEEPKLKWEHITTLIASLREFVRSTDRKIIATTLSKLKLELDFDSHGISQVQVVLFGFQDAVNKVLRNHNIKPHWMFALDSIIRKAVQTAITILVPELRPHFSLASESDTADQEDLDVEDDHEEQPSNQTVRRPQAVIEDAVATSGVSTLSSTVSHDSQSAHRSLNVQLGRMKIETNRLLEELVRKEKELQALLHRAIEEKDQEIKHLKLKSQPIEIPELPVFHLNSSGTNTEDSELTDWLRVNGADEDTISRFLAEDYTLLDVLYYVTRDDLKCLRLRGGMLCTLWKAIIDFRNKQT
Experimental: (§1) Kinase profiling of PK analogs. The inhibitory effect of lead PK analogs were tested against a panel of 15 protein kinase targets (TABLE 1) to develop better lead candidates without “off” target effects. The selectivity assay was performed at Signal Chem™ (Richmond, BC, Canada) by profiling against protein kinase targets using the “Gold Standard” radioisotope screening assay format. This assay format gave the highest signal noise ratio and allowed the direct measurement of catalytic activity of a protein kinase.
(§2) All assays were performed in triplicate in a 96-well assay format and the % error between triplicates is <10%. Protein kinase assays was performed in the presence of 50 μM ATP at 30° C. for 15 min. The activity of the enzymes in the presence of 5 μM PK analogs was compared to that in the vehicle control and expressed as a percent change in activity relative to that observed in the vehicle control. In TABLE 1, the results are expressed as percent activity change compared to control. The intra-assay variability was determined to be less than 10%. Inhibition of target activity by the compound is shown by a negative value, while activation of target activity is shown by positive value, with values >10% considered to be highly significant.

JNK3 = biological target: T2, JNK3 (Homo sapiens, UniProt P53779); details: for % activity change: 5 μM compound, 50 μM ATP, vs vehicle control, negative = inhibition; for inhibited by % compared to control: 5 μM concentration, given as positive inhibition
T2 construct: purchased Signal Chem (Richmond, BC, Canada)
Experimental: as §1, §2

P38α = biological target: T3, P38α (Homo sapiens, UniProt Q16539); details: 5 μM compound, 50 μM ATP, vs vehicle control; negative = inhibition
T3 construct: purchased Signal Chem (Richmond, BC, Canada)
Experimental: as §1, §2

PKCα = biological target: T4, PKCα (Homo sapiens, UniProt P17252); details: 5 μM compound, 50 μM ATP, vs vehicle control; negative = inhibition
T4 construct: purchased Signal Chem (Richmond, BC, Canada)
Experimental: as §1, §2

PKCβ = biological target: T5, PKCβ (Homo sapiens, UniProt P05771); details: 5 μM compound, 50 μM ATP, vs vehicle control; negative = inhibition
T5 construct: purchased Signal Chem (Richmond, BC, Canada)
Experimental: as §1, §2

PKCγ = biological target: T6, PKCγ (Homo sapiens, UniProt P05129); details: 5 μM compound, 50 μM ATP, vs vehicle control; negative = inhibition
T6 construct: purchased Signal Chem (Richmond, BC, Canada)
Experimental: as §1, §2

PKCμ = biological target: T7, PKCμ (Homo sapiens, UniProt Q15139); details: 5 μM compound, 50 μM ATP, vs vehicle control; negative = inhibition
T7 construct: purchased Signal Chem (Richmond, BC, Canada)
T7 sequence (Q15139 1-912): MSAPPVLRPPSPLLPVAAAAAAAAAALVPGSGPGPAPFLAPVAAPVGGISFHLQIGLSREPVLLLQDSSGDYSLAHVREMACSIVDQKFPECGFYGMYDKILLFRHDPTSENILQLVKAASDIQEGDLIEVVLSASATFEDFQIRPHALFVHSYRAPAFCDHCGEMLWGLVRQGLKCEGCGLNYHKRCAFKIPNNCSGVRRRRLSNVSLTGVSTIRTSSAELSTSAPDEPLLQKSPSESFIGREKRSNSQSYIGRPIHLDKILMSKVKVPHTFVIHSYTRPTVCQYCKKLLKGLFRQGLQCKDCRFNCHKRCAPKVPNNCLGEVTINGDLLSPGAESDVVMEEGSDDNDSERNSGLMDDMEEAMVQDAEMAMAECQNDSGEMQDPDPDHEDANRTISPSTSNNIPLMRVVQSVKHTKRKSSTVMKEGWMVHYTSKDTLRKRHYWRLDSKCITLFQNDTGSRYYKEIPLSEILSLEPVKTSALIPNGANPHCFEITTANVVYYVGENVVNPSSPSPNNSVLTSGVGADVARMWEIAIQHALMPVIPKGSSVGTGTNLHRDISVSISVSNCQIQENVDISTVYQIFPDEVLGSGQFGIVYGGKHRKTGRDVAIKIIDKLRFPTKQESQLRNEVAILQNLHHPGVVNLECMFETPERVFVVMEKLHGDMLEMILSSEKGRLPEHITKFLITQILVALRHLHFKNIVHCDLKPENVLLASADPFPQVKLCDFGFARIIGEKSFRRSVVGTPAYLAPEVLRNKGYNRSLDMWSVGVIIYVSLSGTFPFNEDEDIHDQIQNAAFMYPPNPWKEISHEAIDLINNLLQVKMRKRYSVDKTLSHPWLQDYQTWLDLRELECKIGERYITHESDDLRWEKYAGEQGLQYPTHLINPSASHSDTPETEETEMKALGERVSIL
Experimental: as §1, §2

T5 sequence (P05771 whole entry): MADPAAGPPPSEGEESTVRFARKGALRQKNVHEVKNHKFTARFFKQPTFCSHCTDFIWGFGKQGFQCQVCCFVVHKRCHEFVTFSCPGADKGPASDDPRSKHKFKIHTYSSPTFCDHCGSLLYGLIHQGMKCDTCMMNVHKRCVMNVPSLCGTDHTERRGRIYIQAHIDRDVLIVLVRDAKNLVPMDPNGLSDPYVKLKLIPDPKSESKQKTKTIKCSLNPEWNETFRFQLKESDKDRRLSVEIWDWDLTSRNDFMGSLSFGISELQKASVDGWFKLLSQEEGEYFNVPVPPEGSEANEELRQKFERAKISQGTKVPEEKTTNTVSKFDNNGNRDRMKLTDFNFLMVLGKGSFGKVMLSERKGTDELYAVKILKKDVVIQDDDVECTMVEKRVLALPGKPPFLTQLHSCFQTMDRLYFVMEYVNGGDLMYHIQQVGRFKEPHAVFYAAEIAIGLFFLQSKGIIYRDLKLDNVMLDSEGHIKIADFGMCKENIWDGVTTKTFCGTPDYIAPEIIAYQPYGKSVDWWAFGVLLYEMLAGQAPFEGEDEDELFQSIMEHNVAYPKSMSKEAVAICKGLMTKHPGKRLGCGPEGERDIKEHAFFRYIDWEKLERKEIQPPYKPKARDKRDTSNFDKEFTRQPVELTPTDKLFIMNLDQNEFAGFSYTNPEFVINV
T3 sequence (Q16539 whole entry): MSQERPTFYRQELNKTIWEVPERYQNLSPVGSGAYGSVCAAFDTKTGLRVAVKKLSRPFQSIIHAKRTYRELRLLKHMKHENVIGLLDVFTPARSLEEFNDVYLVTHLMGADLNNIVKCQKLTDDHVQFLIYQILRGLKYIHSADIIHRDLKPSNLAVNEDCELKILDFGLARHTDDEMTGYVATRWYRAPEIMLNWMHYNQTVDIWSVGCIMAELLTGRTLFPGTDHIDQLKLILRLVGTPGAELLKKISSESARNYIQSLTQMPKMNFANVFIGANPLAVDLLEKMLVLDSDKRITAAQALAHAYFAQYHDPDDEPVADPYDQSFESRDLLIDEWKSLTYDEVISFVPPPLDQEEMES
T2 sequence (P53779 whole entry): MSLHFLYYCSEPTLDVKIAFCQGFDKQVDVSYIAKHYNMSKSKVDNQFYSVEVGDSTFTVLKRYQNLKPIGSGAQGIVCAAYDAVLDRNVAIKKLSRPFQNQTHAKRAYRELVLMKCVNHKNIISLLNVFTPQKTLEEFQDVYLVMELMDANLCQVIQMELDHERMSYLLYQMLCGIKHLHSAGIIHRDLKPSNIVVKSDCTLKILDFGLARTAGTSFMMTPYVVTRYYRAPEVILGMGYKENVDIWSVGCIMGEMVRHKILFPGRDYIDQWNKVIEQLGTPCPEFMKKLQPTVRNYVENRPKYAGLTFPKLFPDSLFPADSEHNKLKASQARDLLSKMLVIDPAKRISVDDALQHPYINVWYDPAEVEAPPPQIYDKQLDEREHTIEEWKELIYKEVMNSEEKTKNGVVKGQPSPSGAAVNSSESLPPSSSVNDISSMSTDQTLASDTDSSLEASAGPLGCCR

Row | SMILES | % activity change (ASK1) | % activity change (JNK3) | inhibited by % compared to control (JNK3) | % activity change (P38α) | % activity change (PKCα) | % activity change (PKCβ) | % activity change (PKCγ) | % activity change (PKCμ)
1 | Oc1cc(O)c(Cc2c(O)cc(O)cc2O)c(O)c1 [PK103] | 0% | −12% | 12% | −5% | −1% | 3% | 9% | 6%
2 | CC(=O)c1c(O)c(C)c(O)c(Cc2c(O)c3c(c4c2OC(c2ccccc2)CC4=O)OC(C)(C)C=C3)c1O (stereo not drawn) [PK202] | 4% | −12% | 12% | −1% | 9% | 1% | 1% | 6%
3 | CC(=O)c1c(O)c(C)c(O)c(Cc2c(O)c3c(c(C(=O)/C=C/c4ccccc4)c2O)OC(C)(C)C=C3)c1O [Rottlerin, (E)-1-[6-[(3-acetyl-2,4,6-trihydroxy-5-methylphenyl)methyl]-5,7-dihydroxy-2,2-dimethylchromen-8-yl]-3-phenylprop-2-en-1-one] | 2% | 7% |  | −1% | −7% | 0% | 6% | −5%
4 | CC1(C)C=Cc2c(O)cc(O)c(C(=O)/C=C/c3ccccc3)c2O1 [PK302] | 0% | −10% |  | −4% | 13% | 6% | 32% | 2%
